Consider 3 molecules from patent US20240156920A1, “COMPOSITIONS COMPRISING HYALURONIDASE AND/OR COLLAGENASE AND/OR 4-METHYLUMBELLIFERONE (4-MU) AND METHODS OF TREATMENT USING SAME” (STANDARD OF CARE CORPORATION, priority 2019, published 2024).

Series [1] deals with patient with peri-orbital puffiness due to edema. In words: Treatment of peri-orbital puffiness due to peri-orbital edema using 4-MU (Example 5). In kind it is in vivo, human. As for the experimental part:
A patient with peri-orbital puffiness due to edema (edema not due to a hyaluronic acid filler) of the peri-orbital soft tissues or edema of the eyelid fat pads was treated with a composition comprising 25 mg/mL 4-methylumbelliferone (4-MU). Briefly, four injections were administered in the peri-orbital soft tissues and edematous orbital fat pads. The injections were performed using a 0.5 ml syringe having a 32-gauge needle inserted parallel to the globe, angling away from the globe, to avoid injury to the globe. An improvement in the extent of peri-orbital puffiness due to peri-orbital edema was observed within the first 15-60 minutes after the injections. […] Although there was recurrence of some of the edema, there was an improvement up to 3 months.

Series [2] shares this test system. In words: Treatment of peri-orbital puffiness due to peri-orbital edema using a hyaluronidase (Example 2). In kind it is in vivo, human. To be noted: four injections, 10 units in each fat pad. The method, then: A patient with peri-orbital puffiness due to edema (edema not due to a hyaluronic acid filler) of the peri-orbital soft tissues or edema of the eyelid fat pads was treated with a composition comprising a hyaluronidase (e.g., Hylenex). Briefly, four injections were administered in the peri-orbital soft tissues and edematous orbital fat pads using a dosage of 10 units injected in each fat pad (in the case of edema of the fat pads). The injections were performed using a 0.5 ml syringe having a 32-gauge needle inserted parallel to the globe, angling away from the globe, to avoid injury to the globe.
An improvement in the extent of peri-orbital puffiness due to peri-orbital edema was observed within the first 15-60 minutes after the injections. […] Although there was recurrence of some of the edema, there was an improvement up to 3 months.

Series [3] deals with patients with inflammation due to stasis dermatitis. Description: Treatment of inflammation due to stasis dermatitis, severity grade (Example 6). In kind it is in vivo, human. Also on record: key: 4 (severe); 3 (moderate); 2 (mild); 1 (quiescent); 0 (normal). To be noted: one week after treatment, 500 units at five points on the ankle. As for the experimental part: Patients with inflammation due to stasis dermatitis (Patient A, B, and C) on their lower legs were treated with Hylenex and the change in severity of their inflammation was measured after treatment.
Briefly, the severity of inflammation on a target area of each patient's ankle was first graded on the following scale: 4 (severe), 3 (moderate), 2 (mild), 1 (quiescent), or 0 (normal). Patient A scored a 4 prior to treatment, Patient B scored a 3 prior to treatment, and Patient C scored a 3 prior to treatment.
Next, 500 units of hylenex was injected at five different points into an area on each patient's ankle. The injections were performed using a 0.5 ml syringe having a 32-gauge needle. All patients were followed post injection, at one day and one week. Patient A's inflammation was classified as a 2 one week after treatment, Patient B's inflammation was classified as a 2 one week after treatment, and Patient C's inflammation was classified as a 2 one week after treatment.

Series [4] has as its system patients with lower eyelid puffiness. In words: Treatment of lower eyelid puffiness with hyaluronidase and collagenase, visual assessment (Example 7). In kind it is in vivo, human. The conditions noted are these: one patient per composition; 100 U to each of five sites in the lower eyelid fat pads; assessed 2 weeks to 1 year after administration. The method, then: Patient A (a person), Patent B (a person), and Patent C (a person) presented with lower eyelid puffiness.
Briefly, Patient A was administered a composition comprising Hylenex by injections of 100 U to each of five sites in the lower eyelid fat pads, Patient B was administered a composition comprising a collagenase by injections of 100 U to each of five sites in the lower eyelid fat pads, and Patient C was administered a composition comprising Hylenex and a collagenase by injections of 100 U to each of five sites in the lower eyelid fat pads. The injections were performed using a 0.5 ml syringe having a 32-gauge needle.
Each patient's lower eyelid puffiness was visually assessed 2 weeks, 1 month, 2 months, 4 months, 6 months, and 1 year after administration of the compositions.

Series [5] relates to patients with scleroderma on their arms. Description: Treatment of fibrosis (scleroderma on arms), severity grade (Example 8). In kind it is in vivo, human. To be noted: five patients; average prior to treatment moderate; five injection points in a 10×10 cm area; followed one day to six months. As for the experimental part: Five patients with scleroderma on their arms were treated with Hylenex and the change in severity of their fibrosis was measured after treatment. Briefly, the severity of scleroderma on a target area of on each patient was first graded using as either severe, moderate, mild, or none. Overall scores for patients' arms prior to treatment averaged as moderate.
Next, Hylenex was injected at five different points into a 10×10 cm area of scleroderma on the patient's arm. The injections were performed using a 0.5 ml syringe having a 32-gauge needle. All patients were followed post injection, at one day, one week, one, three, and six months.

Series [6] relates to Demyelinated neurons. In words: Treatment of demyelinated neurons in culture, microscopy (Example 9). In kind it is cell-based. To be noted: 10 U/mL; after 14 days; 24-well plate. The method, then: Demyelinated neurons were grown to confluence in culture and then transferred to a 24-well cell culture plate (Sigma) in a volume of 2 mL. 10 U/mL of Hylenex was added to each well.

The test system of series [7] is patients with jowls. Description: Treatment of jowls, severity grade (Example 10). The conditions noted are these: Patients A, B and C, injected at seven points. It counts as in vivo, human. The method, then: Patients with jowls (Patient A, B, and C) were treated with Hylenex and the change in severity of their jowls was measured after treatment. Briefly, the severity of jowls in Patients A-C was assessed on a scale of severe, moderate or mild. Patient A and B presented with severe jowls while Patient C presented with mild jowls.
Next, Hylenex was injected at seven different points into an area of skin on each patients with jowls. The injections were performed using a 0.5 ml syringe having a 32-gauge needle. All patients were followed post injection, at one day, one week, one, three, and six months.

Series [8] deals with patients with peri-orbital puffiness due to edema of the eyelid fat pads. Description: Treatment of peri-orbital puffiness due to peri-orbital edema using HYLENEX, PEFAS and Subjective Patient Score (Example 12). It counts as in vivo, human. The source says:
The Peri-orbital and Eyelid Fullness Assessment Scale (PEFAS or Sweis-Scale) defines the etiology of the upper and/or lower eyelid fullness to determine the best and safest course of treatment. It determines whether the fullness is secondary to pseudoherniation of the upper and/or lower eyelid fat pads, secondary to edema of the eyelid soft tissues, secondary to edema of the fat pads, or secondary to a combination of pseudoherniation of the fat pads with edema of the fat pads, and/or edema of the peri-orbital soft tissues. The PEFAS score is represented as the findings in the right upper eyelid/the findings in the lower eyelid and the findings in the left upper eyelid/the findings in the lower eyelid.
Four patients (Patients A-D) with peri-orbital puffiness due to edema (as identified in Example 1) of the eyelid fat pads were scored as a Grade 1E, 2E, 3E, or 3+E on the Peri-orbital Fullness Assessment Scale. A score was given to the upper and lower eyelids in the patient's left and right eye. Patient A's eyes were scored on the PEFAS scale as a L 0/3E (left eye; upper eyelid over lower eyelid) and a R 0/3E (right eye; upper eyelid over lower eyelid). Patient B was scored as a L 2E/2E and a R 2E/2E. Patient C was scored as a L 1/3E and a R 0/3E and Patient D was scored as a L 2E/3+E and a R 2E/3+E.
The patients were subsequently treated with HYLENEX. […] The injections were performed using a 0.5 ml syringe having a 31-gauge needle inserted parallel to the globe, angling away from the globe, to avoid injury to the globe. Specifically, three injections were made into the medial eyelid fat pad, two into the central eyelid fat pad, and three into the lateral eyelid fat pad at a depth of about 6 mm, 8 mm, and 6 mm, respectively. Additionally Patients B and C received 3 to 5 injections in the peri-orbital soft tissues (e.g., the malar region) at a depth of between about 5 to about 10 mm.
After treatment, Patient C was followed for 1 month, Patient D was followed for 2 months, and Patients A and B were followed for 3 months.
After treatment, the patient's eyes were scored on the PEFAS scale. Patient A's eyes were scored on the PEFAS scale as a L 0/0 (left eye; upper eyelid over lower eyelid) and a R 0/0E (right eye; upper eyelid over lower eyelid). Patient B was scored as a L 2E/1E and a R 2E/1. Patient C was scored as a L 1E/1E and a R 0/1 and Patient D was scored as a L 2E/0E and a R 2E/0.
Each patient was given an initial Subjective Patient Score of 10. The Subjective Patient Score is based on a scale of 1 to 10 with 10 being the subject's observed starting amount of peri-orbital puffiness and 0 being no puffiness. Each of the patients scored their puffiness between as a 3 or 4 at 2 weeks, 3 months, and 6 months after their initial treatment.

On to `Cc1cc(=O)oc2cc(O)ccc12` [4-methylumbelliferone], for which, in series [1] (one patient followed for 6 months, 25 mg/mL, four injections), the adverse effects entry was “without any adverse effects”. Moreover, the “duration of overall reduction in peri-orbital puffiness due to peri-orbital edema compared to pre-treatment” value in series [1] (one patient followed for 6 months, 25 mg/mL, four injections, recurrence of some of the edema) is reported as “up to 3 months”. In addition, the “time after the injections within which an improvement in the extent of peri-orbital puffiness due to peri-orbital edema was observed” value in series [1] (one patient, four injections of a composition comprising 25 mg/mL) lay in the range of 15 to 60 min.
On to “Hylenex: recombinant preparation of human hyaluronidase; soluble fragment of human hyaluronidase (PH20), 447 amino acids, SEQ ID NO: 1”, for which the adverse effects result is given as “without any adverse effects” in series [2] (one patient followed for 6 months) and “without any adverse effects” in series [8] (Patients A-D followed for up to 6 months, 30U per fat pad). Besides, in series [2] (one patient followed for 6 months, recurrence of some of the edema), the “duration of overall reduction in peri-orbital puffiness due to peri-orbital edema compared to pre-treatment” value is listed as “up to 3 months”. In addition, in series [2] (one patient), the “time after the injections within which an improvement in the extent of peri-orbital puffiness due to peri-orbital edema was observed” value lay in the range of 15 to 60 min. The “severity of inflammation (scale 0-4) after treatment” value in series [3] (Patient A, 4 prior to treatment) was 2; in series [3] (Patient B, 3 prior to treatment) it was 2; in series [3] (Patient C, 3 prior to treatment) it was 2. Also, the “lower eyelid puffiness, visual assessment” value in series [4] was “reduction in lower eyelid puffiness”. Besides, in series [5], the “overall severity score of scleroderma post-treatment (severe, moderate, mild, none)” value is recorded as “mild”. Further, the “myelination of neurons by microscopy” value in series [6] is given as “remyelinated neurons”. The “duration of effect on jowls” value in series [7] is “more than six months”. The “severity of jowls (severe, moderate or mild) after treatment” value in series [7] (one day after treatment, A and B severe, C mild before) is reported as “mild jowls”. Further, the “PEFAS score after treatment (upper eyelid over lower eyelid)” value is on record as 0/0 in series [8] (Patient A, left eye, L 0/3E before treatment) and 0/1 in series [8] (Patient C, right eye, R 0/3E before treatment). In addition, the “time over which a reduction in peri-orbital puffiness is still exhibited” value in series [8] (Patients A-D, 30U per fat pad) is “up to 6 months”. Also, in series [8] (each of Patients A-D, 30U per peri-orbital fat pad exhibiting edema), the “time after the injections within which an improvement in the extent of peri-orbital puffiness was exhibited” value fell in the range of 15 to 60 min. Further, the “peri-orbital (eye) puffiness compared to pre-treatment” value in series [8] (each of Patients A-D, followed 1 month (C), 2 months (D), 3 months (A and B), 30U per fat pad) is “marked reduction”.
For collagenase, in series [4], the “lower eyelid puffiness, visual assessment” value is recorded as “did not exhibit any reduction in lower eyelid puffiness”.
